Results: patent US8481551B2, “Gyrase and topoisomerase IV inhibitors” (Vertex Pharmaceuticals Incorporated, priority 2011, dated 2013)
Counter-ions that a name gives are not always drawn.

How the values were obtained:
S. aureus DNA gyrase = S. aureus DNA gyrase (Staphylococcus aureus, UniProt P0A0K8); test: DNA gyrase ATPase assay; conditions: 90 nM enzyme, 0.9 mM ATP, 30° C.
M. tuberculosis = test: MIC determination procedure for Mycobacterium species (Protocol 4); format: cell-based
[1] = system: β-haemolytic streptococci (Groups A, B, C and G); test: Gyrase MIC, microdilution broth method (Protocol 1); format: cell-based; conditions: 28 isolates tested

Sequence of S. aureus DNA gyrase (P20831 whole entry): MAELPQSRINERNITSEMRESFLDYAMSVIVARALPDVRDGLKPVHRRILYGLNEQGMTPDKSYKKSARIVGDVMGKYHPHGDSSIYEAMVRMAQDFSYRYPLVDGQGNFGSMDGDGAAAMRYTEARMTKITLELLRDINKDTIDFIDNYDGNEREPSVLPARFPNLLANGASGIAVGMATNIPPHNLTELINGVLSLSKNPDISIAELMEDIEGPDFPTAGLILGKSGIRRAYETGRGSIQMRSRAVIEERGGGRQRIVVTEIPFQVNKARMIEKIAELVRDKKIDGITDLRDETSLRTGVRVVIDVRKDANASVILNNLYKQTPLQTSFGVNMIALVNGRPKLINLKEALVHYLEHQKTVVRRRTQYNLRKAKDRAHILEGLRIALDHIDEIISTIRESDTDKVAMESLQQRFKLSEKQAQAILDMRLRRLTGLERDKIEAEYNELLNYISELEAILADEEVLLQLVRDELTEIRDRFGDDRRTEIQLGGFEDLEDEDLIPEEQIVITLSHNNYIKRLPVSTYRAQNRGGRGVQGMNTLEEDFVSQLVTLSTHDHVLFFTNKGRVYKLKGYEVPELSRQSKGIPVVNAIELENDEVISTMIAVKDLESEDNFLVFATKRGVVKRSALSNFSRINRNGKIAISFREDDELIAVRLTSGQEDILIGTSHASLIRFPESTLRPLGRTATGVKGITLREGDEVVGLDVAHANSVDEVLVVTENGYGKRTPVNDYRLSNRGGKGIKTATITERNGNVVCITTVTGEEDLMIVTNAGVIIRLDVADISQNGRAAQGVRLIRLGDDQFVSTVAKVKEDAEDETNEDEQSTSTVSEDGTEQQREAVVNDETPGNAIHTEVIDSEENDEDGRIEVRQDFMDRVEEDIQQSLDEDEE
Sequence of S. aureus DNA gyrase (P0A0K8 whole entry): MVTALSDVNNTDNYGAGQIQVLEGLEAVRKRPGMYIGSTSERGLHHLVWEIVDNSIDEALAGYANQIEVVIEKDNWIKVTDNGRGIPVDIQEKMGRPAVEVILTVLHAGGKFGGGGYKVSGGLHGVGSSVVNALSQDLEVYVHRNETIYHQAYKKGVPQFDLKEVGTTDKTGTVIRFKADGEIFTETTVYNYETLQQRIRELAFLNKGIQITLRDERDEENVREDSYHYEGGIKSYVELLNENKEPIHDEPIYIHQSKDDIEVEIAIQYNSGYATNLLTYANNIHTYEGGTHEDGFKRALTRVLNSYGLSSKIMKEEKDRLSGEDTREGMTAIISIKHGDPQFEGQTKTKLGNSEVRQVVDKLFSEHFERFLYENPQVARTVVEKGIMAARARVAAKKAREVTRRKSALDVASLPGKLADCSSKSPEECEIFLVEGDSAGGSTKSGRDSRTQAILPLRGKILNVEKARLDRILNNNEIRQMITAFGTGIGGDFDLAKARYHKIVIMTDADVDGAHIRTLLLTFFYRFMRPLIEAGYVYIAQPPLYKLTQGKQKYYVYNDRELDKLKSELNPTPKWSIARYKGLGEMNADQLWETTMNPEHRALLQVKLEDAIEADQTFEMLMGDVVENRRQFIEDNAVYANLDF

Compound | IC50 (S. aureus DNA gyrase) [nM] | MIC (M. tuberculosis; ATCC 25618 / H37Rv, M. tuberculosis H37Rv ATCC 25618) [µg/mL] | MIC (M. tuberculosis; ATCC 35801 / ERDMAN, M. tuberculosis Erdman ATCC 35801) [µg/mL] | MIC90 [1] [µg/mL] | MIC Range [1] [µg/mL]
CCNC(=O)Nc1nc2cc(-c3cnc(C(C)(C)OP(=O)([O-])[O-])nc3)c(F)c([C@H]3CCCO3)c2[nH]1.[Na+].[Na+] [Compound W, disodium (R)-2-(5-(2-(3-ethylureido)-6-fluoro-7-(tetrahydrofuran-2-yl)-1H-benzo[d]imidazol-5-yl)pyrimidin-2-yl)propan-2-yl phosphate] | 54 | – | – | – | –
CCNC(=O)Nc1nc2cc(-c3cnc(C(C)(C)O)nc3)cc([C@H]3CCCO3)c2[nH]1 [Compound 13, methanesulfonic acid salt of 1-ethyl-3-[5-[2-(1-hydroxy-1-methyl-ethyl)pyrimidin-5-yl]-7-[(2R)-tetrahydrofuran-2-yl]-1H-benzimidazol-2-yl]urea] | – | 0.37 | 0.25 | 0.25 | 0.06 to 0.5
